Entries after “also recorded” stand apart in the source; their conditions may differ.
How the values were obtained:
A549 = experiment: Proliferation assay, PKC inhibitor in combination with PKC activators, A549; type: cell-based; conditions: Sotrastaurin 1 μM with K101A or K102
Experimental: To assess if activation of different classes of PKC is required for anti-proliferation effect of PKC activators, Sotrastaurin, a PKC inhibitor targeting both conventional and novel classes of PKC, was tested in combination with PKC activators in the proliferation assays. Proliferation assay in lung cancer cell line A549 (FIG. 15) and in pancreatic cell line MiaPaCa-2 (FIG. 16) was performed as described in Example 1. […] Then, K101A or K102 was tested in 8- or 9-point titrations in the presence of DMSO or Sotrastaurin (0.1 μM or 1 μM). […] Thus, PKC activator-mediated anti-proliferation effects are dependent on activation of PKC isoforms from conventional, or novel, or both classes of PKCs.
To assess if PKC activation is required for anti-proliferation effect of PKC activators in cancer cell lines that are sensitive to these activators, a pan-PKC inhibitor Go6983, targeting classes of PKCs (conventional, novel, atypical, and PKCμ), was tested in combination with PKC activators in the proliferation assays. Proliferation assay in lung cancer cell line A549 (FIG. 17) and in pancreatic cell line MiaPaCa-2 (FIG. 18) was performed as described in Example 1. […] Then, K101A or K102 was tested in 8- or 9-point titrations in the presence of DMSO or Go6983 (0.1 μM or 1 μM). […] Thus, PKC activation is required for anti-proliferation effect of PKC activators.
Proliferation assay was performed as described in Example 1. […] Thus, PKC activator-mediated anti-proliferation effects appear mainly dependent on activation of novel PKC isoforms.

Mino cells = experiment: Proliferation assay, PKC inhibitors in combination with PKC activators, Mino; type: cell-based; conditions: Sotrastaurin 0.3/1 μM, Go6983 0.1/1 μM, Go6976 0.3/1 μM, Enzastaurin 1/3 μM
Experimental: PKC inhibitor studies were performed as described in Example 8, 9, and 10. […] Thus, PKC activator-mediated anti-proliferation effects may be dependent on activation of PKC isoforms from the novel PKC class.

[1] = system: PKC isoforms and Erk1/2 in A549 cells; experiment: PKC inhibitor effect on PKC activator-mediated phosphorylation of PKCs and Erk1/2, A549; type: cell-based; conditions: 30 minutes
Experimental: To assay if PKC inhibitors have any effects on the PKC activator-mediated phosphorylation of PKCs, A549 cells were pre-treated with DMSO, PKC inhibitors Go6983 (0.3 μM or 1 μM) or Sotrastaurin (0.3 μM or 1 μM) for 30 minutes before adding PKC activators K101A (1 μM) or K102 (0.1 μM) for another 30 minutes (FIG. 22). Cell lysis, protein quantitation, and Western blot analysis were performed as described above in Example 2 and 4. […] Phosphorylation of PKCα/β at Thr638/641 was not affected by the inhibitors (FIG. 22A). […] These PKC inhibitor studies indicate that blocking phosphorylation and activation of various isoforms of PKC is correlated with inhibition of the anti-proliferative effects of the PKC activators.
Cell lysis, protein quantitation, and Western blot analysis were performed as described above in Example 2 and 4. […] These PKC inhibitor studies also indicate that phosphorylation and activation of novel PKC isoforms and PKCμ is required for the anti-proliferative effects of the PKC activators whereas phosphorylation of PKCδ at Tyr311 is correlated with inhibition of the anti-proliferative effects of PKC activators.

[2] = system: PKC isoforms and Erk1/2 in Mino and Namalwa cells; experiment: PKC inhibitor effect on K101A-mediated phosphorylation of PKCs and Erk1/2 in Mino and Namalwa cells; type: cell-based
Experimental: Cell lysis, protein quantitation, and Western blot analysis were performed as described above in Example 2 and 4. […] Again, these PKC inhibitor studies indicate the anti-proliferative effects of the PKC activators appear to be positively associated with phosphorylation and activation of novel PKC isoforms and PKCγ, and negatively associated with the phosphorylation of PKCδ at Tyr311.

Namalwa cells = experiment: Proliferation assay, PKC inhibitors in combination with PKC activators, Namalwa; type: cell-based; conditions: Sotrastaurin 0.3/1 μM, Go6983 0.1/1 μM, Go6976 0.3/1 μM, Enzastaurin at very high concentration of 10 μM
Experimental: PKC inhibitor studies were performed as described in Example 15. […] Thus, PKC activator-mediated anti-proliferation effects may be dependent on activation of novel PKC isoforms.

MiaPaCa-2 = experiment: Proliferation assay, PKC inhibitor in combination with PKC activators, MiaPaCa-2; type: cell-based; conditions: Sotrastaurin 1 μM with K101A or K102
[3] = system: PKC substrates in A549 cells; experiment: Global PKC activation (phosphorylated PKC substrates), Western blot, A549; type: cell-based; conditions: 30 minutes, Phospho-PKC substrate Motif MultiMab
Experimental: (§1) A549 lung cancer cells (˜3 million cells) were seeded in 10 cm tissue culture dishes and grown overnight. Cells were then treated with different drugs at indicated concentrations (see FIG. 9A for global activation of PKC and FIG. 10 for activation of PKC isoforms) for 30 minutes. Panc2.13 pancreatic cells (˜5 million) were seeded and treated as in FIG. 9B for global activation of PKC. Cell lysate preparation, protein quantitation, SDS-PAGE, and Western blotting procedures are described in Example 2. Primary antibodies used in this Example and later Examples of this application are shown in Table A. Western blot membranes were scanned using Odyssey® Imaging System (Licor Biosciences) if secondary antibodies Anti-mouse IgG Dylight 800 conjugate or Anti-rabbit IgG DyLight 680 conjugate (1:10000)(Cell signaling or similar IR 2nd antibodies from different vendors) were used. Alternatively, Imagequant LAS4000 (GE) was used to scan membranes if secondary antibodies Anti-mouse IgG HRP conjugate or Anti-rabbit IgG HRP conjugate (dilutions from 1:2000-1:10000) were used.

A549 cells = experiment: Soft agar colony formation assay; type: cell-based
Experimental: To prepare the base agar layer (0.6%), melted 1.2% agar solution was mixed 1:1 (v/v) with 2×DMEM/20% FBS medium in a tube by inverting several times and 50 μL of the mixture was immediately transferred to a well in a 96-well flat-bottom microplate. The plate was placed at 4° C. for 30 minutes to allow the base agar layer to solidify. Then, the cell agar layer (agar 0.4%) was prepared by transferring 75 μL of the cell and agar mixture containing 1:1:1 (v/v/v) of 1.2% agar solution, 2×DMEM/20% FBS and cell suspension (0.4-4×10^5/mL) to each well of the plates so that each well contained 1000-10000 cells per well. The plates were placed at 4° C. for 15 minutes and then 75 μL of media were added to each well. After incubating the plates overnight in a CO2 incubator, 50 μL of media with or without 5× final concentrations of compounds were added to each well. Each compound was tested in 9-point 3-fold dilution series. The plates were incubated for 7-10 days at 37° C. At the end of incubation period, 28 μL of Calcein AM solution (5 μM) was added to the center of each well. The plates were incubated at 37° C. for 45 minutes before scanning on Acumen (TTP Labtech). Each compound was tested in triplicates. Data was analyzed and compound EC50s were calculated using GraphPad Prism 5.

[4] = system: PKC substrates in Panc2.13 cells; experiment: Global PKC activation (phosphorylated PKC substrates), Western blot, Panc2.13; type: cell-based; conditions: Phospho-(Ser) PKC Substrate Antibody
Experimental: as §1

[5] = literature reports; cited from earlier work
[6] = system: PKC isoforms in A549 cells; experiment: Activation of PKC isoforms, Western blot, A549; type: cell-based; conditions: 30 minutes
Experimental: as §1

PKCμ = PKCμ phosphorylation in A549, HCT116, SW620, Panc02.13 cells, Western blot; type: cell-based; conditions: 30 minutes
Experimental: (§2) Non-cancerous lung fibroblast cell line HFL-1 or cancer cells (2-8 million cells) were seeded in 10 cm dishes and grown overnight so that the cells were about 40-80% confluent before treatment with the compound. Cells were then treated with different drugs at indicated concentrations (see descriptions for FIG. 11 and FIG. 12) for 30 minutes. Cell lysate preparation, protein quantitation, SDS-PAGE, and Western blotting procedures are described in Example 2 and 4. Primary antibodies used in this Example and later Examples of this application are shown in Table A. Secondary antibodies Anti-mouse IgG HRP conjugate or Anti-rabbit IgG HRP conjugate (dilutions from 1:2000-1:10000) were used. Western blot membranes were scanned using Imagequant LAS4000 (GE).

[7] = system: K-Ras mutant pancreatic, lung, and colon cancer cell lines, leukemia cell lines; experiment: Proliferation assays, panel of cancer cell lines (summary statements); type: cell-based
Experimental: Briefly, cells at a density of 1,000-10,000 cells/well were seeded in 96-well plates and incubated at 37′C for 24 hours. A series of 9 different concentrations of compound stocks (500×) were created by 3-fold serial dilution in DMSO. These compounds were further diluted in culture media and then added to cells so that the final DMSO concentration was 0.2%. After 96 hours of incubation, 50 μL of CellTiter Glo reagent (Promega) was added to each well and luminescence was measured after 10 minutes using EnVision (PerkinElmer). […] The dose range for most compounds was 4.6 nM-30 μM. The dose ranges for some compounds were adjusted downward to 0.46 nM-3 μM or 0.08 nM-0.5 μM or 0.03 nM-0.2 μM. Luminescence from cells treated with […] alone was set as Max and % of inhibition was calculated as follows: Inhibition %=(Max-Sample value)/Max*100. Data was analyzed using XL-fit software (ID Business Solutions Ltd.) and EC50, relative EC50, and % of top inhibition were calculated. The results are shown in Tables 3-6 for pancreatic cancer, lung cancer, colon/gastric cancer, and leukemia cell lines.

[8] = system: PKC isoforms in Panc2.13 cells; experiment: Time course of activation of PKC isoforms in Panc2.13; type: cell-based; conditions: extended periods (16 h and 24 h), K102 0.1 μM, K103 0.01 μM versus K101A
Experimental: Cells of pancreatic cancer cell line Panc2.13 were seeded as described above, and the cell confluence was between 40-80% the next day. […] Phosphorylation at multiple PKC isoforms, such as Ser744/748 or Ser916 for PKCμ, phosphorylation at Thr638/641 for PKCα/β, phosphorylation at Ser660 for PKCβII (pan-PKC), phosphorylation at Ser643/676 for PKCδ/θ, and phosphorylation at Thr505 for PKCδ, were detected.

PKCδ = PKCδ Tyr311 phosphorylation in A549, HCT116, SW620, Panc02.13 cells, Western blot; type: cell-based; conditions: 30 minutes
Experimental: as §2, with “(GE). The results are shown in FIG. 11A and FIG. 11B for HFL-1 cells and FIG. 11C and FIG. 12 for A549 cells.” for “(GE).”

[9] = inhibitor pre-treatment 0.3 μM or 1 μM

## CN1CCN(c2nc(C3=C(c4c[nH]c5ccccc45)C(=O)NC3=O)c3ccccc3n2)CC1 [Sotrastaurin]
A549
  effect on PKC activator-mediated anti-proliferation effects: completely abolished
Mino cells
  effect on PKC activator-mediated anti-proliferation effects: dose-dependently blocked
[1]; [9]
  K101A- and K102-induced phosphorylation of Erk1/2: blocked dose-dependently
  K101A- or K102-induced phosphorylation, P-PKCμ (Ser916), P-PKCμ (Ser744/748), P-PKCδ (Thr505): blocked in a dose-dependent manner
  Phosphorylation of PKCα/β at Thr638/641: not affected
[1]; inhibitor pre-treatment 1 μM
  K101A- or K102-induced phosphorylation of PKCμ at Ser916 or Ser744/748, PKCδ at Thr505, and Erk: completely abolished
  phosphorylation of PKCδ at Tyr311 induced by PKC inhibitor: induced phosphorylation of PKCδ at Tyr311
[2]; inhibitor pre-treatment 30 minutes
  phosphorylation of PKCδ at Tyr311 induced by PKC inhibitor: induced robust phosphorylation
[2]; inhibitor pre-treatment 30 minutes (Go6983, Sotrastaurin 1 μM)
  K101A-induced phosphorylation of PKCμ at Ser916 or Ser744/748, PKCδ at Thr505, and Erk: completely abolished
Namalwa cells
  effect on PKC activator-mediated anti-proliferation effects: dose-dependently blocked
MiaPaCa-2
  effect on PKC activator-mediated anti-proliferation effects: completely abolished

## CCCCCCCCCCCCCC(=O)O[C@@H]1[C@@H](C)[C@@]2(O)[C@@H](C=C(CO)C[C@]3(O)C(=O)C(C)=C[C@@H]23)[C@@H]2C(C)(C)[C@]12OC(C)=O [Compound K-103, 12-O-Tetradecanoylphorbol-13-acetate]
[3]
  phosphorylation of PKC substrates (global activation of PKC): potently elevated
A549 cells; 7-10 days, 9-point dilution series
  number of colonies formed in soft agar: reduced the number of colonies
A549 cells; K103, followed by K102, K101A, and K101E
  potency rank in soft agar assay: Most potent compound
[4]
  phosphorylation of PKC substrates (global activation of PKC): potently elevated
[5]
  tumor promotion: tumor-promoting
[6]
  P-PKCδ (Thr505) and P-PKCδ/θ (Ser643/676): potently increased
[6]; high levels already in DMSO treated cells
  P-PKC (pan)(βII Ser660) and P-PKCα/β (Thr638/641): no further increases
PKCμ
  PKCμ activation, phosphorylation at Ser744/748: observed for all four cancer cell lines
  PKCμ activation, phosphorylation at Ser916: observed primarily in cell lines A549 and Pan 02,13; also recorded: observed primarily in cell lines A549 and Panc02.13
[7]
  potency in proliferation inhibition relative to prostratin: more potent in proliferation inhibition
[8]
  reducing the phosphorylation at βII Ser660 of PKC (pan), to a lesser extent Thr638/641 of PKCα/β: more potent
PKCδ
  PKCδ activation, phosphorylation at Tyr311: observed for PKC activator insensitive cell lines HCT116 and SW620 but not as significantly for sensitive cell lines A549 and Pan 02,13; also recorded: observed for cell lines HCT116 and SW620 but not as significantly for cell lines A549 and Panc02.13

Reference: patent US12502369B2, “Methods of cancer treatment” (K-GEN, INC., priority 2015, dated 2025)
